Consider 22 molecules from ChEMBL document CHEMBL5233245, “Monocarboxylate transporter 1 and 4 inhibitors as potential therapeutics for treating solid tumours: A review with structure-activity relationship insights” (Eur J Med Chem, 2020).

One may read the IC50 as the concentration that inhibits the measured activity by half. A word on the Ki: it is a dissociation constant, usually derived from enzyme kinetics or from competition with a known ligand. The term EC50 denotes the concentration giving half of the maximal effect.

The target of assay [1] is T1, Monocarboxylate transporter 1 (Homo sapiens, UniProt P53985).
T1 sequence (P53985 whole entry): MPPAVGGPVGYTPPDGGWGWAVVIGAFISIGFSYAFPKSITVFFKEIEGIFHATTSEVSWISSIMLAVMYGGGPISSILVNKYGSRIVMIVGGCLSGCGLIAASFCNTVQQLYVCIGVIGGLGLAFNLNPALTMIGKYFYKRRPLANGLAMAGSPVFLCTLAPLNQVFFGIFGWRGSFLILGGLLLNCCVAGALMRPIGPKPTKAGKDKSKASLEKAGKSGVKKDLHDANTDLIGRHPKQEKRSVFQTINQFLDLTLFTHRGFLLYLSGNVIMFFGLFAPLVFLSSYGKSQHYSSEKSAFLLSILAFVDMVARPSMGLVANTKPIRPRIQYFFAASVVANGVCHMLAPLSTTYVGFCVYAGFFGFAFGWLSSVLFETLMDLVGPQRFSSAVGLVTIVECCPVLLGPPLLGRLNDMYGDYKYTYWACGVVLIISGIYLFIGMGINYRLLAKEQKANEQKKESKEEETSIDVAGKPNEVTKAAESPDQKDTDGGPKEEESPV
The assay is described as follows: Inhibition of MCT1 (unknown origin) assessed as reduction in [14C]lactate uptake incubated for 20 mins by liquid scintillation counting analysis.

Assay [2] has as its target T2, Monocarboxylate transporter 1 (Rattus norvegicus, UniProt P53987).
T2 sequence (P53987 whole entry): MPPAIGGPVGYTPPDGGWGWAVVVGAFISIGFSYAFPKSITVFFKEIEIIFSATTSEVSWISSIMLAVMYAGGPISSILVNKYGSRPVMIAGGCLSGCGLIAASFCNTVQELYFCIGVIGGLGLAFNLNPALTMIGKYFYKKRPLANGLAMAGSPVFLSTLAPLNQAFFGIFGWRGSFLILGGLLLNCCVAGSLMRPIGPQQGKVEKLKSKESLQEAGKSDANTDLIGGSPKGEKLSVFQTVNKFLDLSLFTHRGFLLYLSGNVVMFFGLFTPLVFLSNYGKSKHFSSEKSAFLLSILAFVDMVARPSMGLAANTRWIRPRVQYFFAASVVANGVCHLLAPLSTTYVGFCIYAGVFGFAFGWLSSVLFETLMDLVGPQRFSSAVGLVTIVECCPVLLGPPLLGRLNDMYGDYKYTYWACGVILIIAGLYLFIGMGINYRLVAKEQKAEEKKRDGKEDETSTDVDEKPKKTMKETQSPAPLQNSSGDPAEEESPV
Put plainly: Inhibition of MCT1 in rat Brain-like endothelial cells incubated for 15 mins in presence of [14C]lactic acid by scintillation counter assay. It is filed as cell-based.

Assay [3] has as its target T3, Monocarboxylate transporter 2 (Rattus norvegicus, UniProt Q63344).
T3 sequence (Q63344 whole entry): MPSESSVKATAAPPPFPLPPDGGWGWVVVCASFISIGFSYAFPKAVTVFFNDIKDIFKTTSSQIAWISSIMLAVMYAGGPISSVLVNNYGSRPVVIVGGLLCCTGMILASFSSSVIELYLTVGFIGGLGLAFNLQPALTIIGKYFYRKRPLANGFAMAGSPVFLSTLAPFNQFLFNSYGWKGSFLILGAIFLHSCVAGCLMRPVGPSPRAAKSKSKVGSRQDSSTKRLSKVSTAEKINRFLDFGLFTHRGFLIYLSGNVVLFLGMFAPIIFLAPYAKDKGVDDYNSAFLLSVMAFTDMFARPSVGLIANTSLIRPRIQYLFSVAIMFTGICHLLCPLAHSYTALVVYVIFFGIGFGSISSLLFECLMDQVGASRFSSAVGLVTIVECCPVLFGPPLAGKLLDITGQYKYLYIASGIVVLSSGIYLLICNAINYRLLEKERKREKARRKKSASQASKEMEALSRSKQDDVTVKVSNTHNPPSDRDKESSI
The assay is described as follows: Binding affinity to MCT2 in rat Erythrocyte assessed as inhibition constant. The format is cell-based.

In assay [4] the target is T2, Monocarboxylate transporter 1. The assay is described as follows: Binding affinity to MCT1 in rat Erythrocyte assessed as inhibition constant. It is filed as cell-based.
Assay [5] concerns Raji. The assay is described as follows: Cytotoxicity against human Raji cells assessed as inhibition of cell growth by MTT assay. The format is functional, cell-based. In general terms: Tetrazolium dyes change colour on reduction, which living cells bring about.
The target in assay [6] is T2, Monocarboxylate transporter 1. The assay is described as follows: Inhibition of MCT1 in rat Brain-like endothelial cells incubated for 15 mins in presence of [14C]lactate by […]. It is filed as cell-based.
The next assay relates to MDA-MB-231. The assay is described as follows: Cytotoxicity against human MDA-MB-231 cells assessed as inhibition of cell growth. The format is functional, cell-based.
A further assay deals with Mus musculus. Put plainly: Antitumor activity against human WiDr cells xenografted in CD-1 mouse assessed as reduction in tumor growth at 25 mg/kg,ip qd measured after 16 days. The format is functional. Also on record: scale not given: the % may be the effect or the level left. Conditions: time 16 day.
In assay [7] the test system is Raji. Put plainly: Antiproliferative activity against human Raji cells assessed as inhibition of cell growth by MTT assay. The format is functional, cell-based.
For assay [8], the target named is T1, Monocarboxylate transporter 1. Put plainly: Binding affinity to MCT1 (unknown origin) assessed as inhibition constant.
Assay [9] concerns the target T4, Monocarboxylate transporter 4 (Homo sapiens, UniProt O15427).
T4 sequence (O15427 whole entry): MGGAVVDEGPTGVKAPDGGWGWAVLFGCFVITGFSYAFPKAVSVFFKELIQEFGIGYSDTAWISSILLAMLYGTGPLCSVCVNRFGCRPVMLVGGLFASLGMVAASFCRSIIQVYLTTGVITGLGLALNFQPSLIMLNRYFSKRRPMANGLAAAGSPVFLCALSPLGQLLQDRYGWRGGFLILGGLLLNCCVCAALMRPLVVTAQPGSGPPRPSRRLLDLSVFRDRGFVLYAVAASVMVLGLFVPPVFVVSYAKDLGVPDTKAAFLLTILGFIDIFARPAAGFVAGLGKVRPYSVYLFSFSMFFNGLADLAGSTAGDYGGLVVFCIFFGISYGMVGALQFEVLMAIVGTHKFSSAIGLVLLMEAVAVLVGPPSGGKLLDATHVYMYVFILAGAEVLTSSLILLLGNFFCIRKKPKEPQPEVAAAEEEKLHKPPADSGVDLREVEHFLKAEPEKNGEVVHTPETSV
The assay is described as follows: Binding affinity to human MCT4 expressed in Xenopus laevis oocytes assessed as inhibition constant in presence of [14C]lactate by fluorescence assay.

In assay [10] the target is T1, Monocarboxylate transporter 1. Put plainly: Inhibition of MCT1 (unknown origin).
In assay [11] the target is T4, Monocarboxylate transporter 4. Put plainly: Inhibition of MCT4 (unknown origin).

SMILES strings stand for the structures. Some results are limits rather than exact numbers.

In the case of `COc1cc(N(CC(C)C)CC(C)C)ccc1/C=C(\C#N)C(=O)O`, the 50% inhibitory concentration (IC50) in [1] amounted to 11 nM. Take `CCCCCN(CCCCC)c1ccc(/C=C(\C#N)C(=O)O)c(OC)c1`: the IC50 in [1] was 34 nM. The same measure, in the same setting: the value for `COc1cc(N2CCCC2)ccc1/C=C(\C#N)C(=O)O` was 48 nM; that for `COc1cc(N2CCCCC2)ccc1/C=C(\C#N)C(=O)O` was 25 nM. Regarding `COc1cc(N(Cc2ccccc2)Cc2ccccc2)ccc1/C=C(\C#N)C(=O)O`, the IC50 in assay [1] is 37 nM. Consider `N#C/C(=C\c1cn(-c2ccccc2)c2ccccc12)C(=O)O`, for which the 50% inhibitory concentration (IC50) in assay [2] was determined as 12.8 nM. On the same count and under the same terms, to `N#C/C(=C\c1cn(Cc2ccccc2)c2ccccc12)C(=O)O` belongs 65.9 nM. For the molecule `Cc1n[nH]c(C)c1Cc1sc2c(c1C(=O)N1C[C@@H](O)CO1)c(=O)n(C)c(=O)n2CC(C)C`, the Ki in [3] was under 10 nM; in assay [4], 2 nM. As to `CC(C)c1cc(=O)c2c(OCCCO)cc(OCc3ccc4ccccc4c3)cc2o1`, in the assay on Raji [5], the EC50 came to 100 nM. In the case of `N#C/C(=C\c1ccc(OCCBr)cc1)C(=O)O`, the IC50 in assay [6] was over 5000 nM. In the case of `Cc1cc(=O)c2c(OCCCO)cc(OCc3ccc4ccccc4c3)cc2o1`, in the assay with Raji [5], the EC50 came to 1000 nM. For `COC(=O)[C@@](O)(CO)COC(=O)c1nn(-c2ccc(N(Cc3ccccc3)Cc3ccccc3)cc2)c2ccccc12`, the IC50 with MDA-MB-231 came out at 2330 nM. With `CC(C)(C)[Si](OCCOc1ccc(/C=C(\C#N)C(=O)O)cc1)(c1ccccc1)c1ccccc1`, the Activity in the assay on Mus musculus was 28%.

In the case of `N#C/C(=C\c1ccc(OCCO)cc1)C(=O)O`, the concentration for half-maximal inhibition (IC50) in assay [6] was over 5000 nM.

As for `CC(C)c1cc(=O)c2c(OCc3ccccc3CO)cc(OCc3ccc4ccccc4c3)cc2o1`, in the assay on Raji [5], the EC50 was over 100000 nM.

For `N#C/C(=C\c1cn(-c2ccccn2)c2ccccc12)C(=O)O`, in assay [2], the IC50 was over 1000 nM. `CC(C)Cn1c(=O)n(C)c(=O)c2nc(CCCCCO)c(COc3ccc4ccccc4c3)nc21`: in the assay with Raji [7], the EC50 was under 50 nM. On to `CC(C)(C)[Si](Oc1ccc(/C=C(\C#N)C(=O)O)cc1)(c1ccccc1)c1ccccc1`, for which the Activity with Mus musculus is reported as 28%. For the molecule `COC(=O)[C@@](O)(CO)COC(=O)c1nn(-c2ccc(N(Cc3ccc(F)cc3)Cc3ccc(F)cc3)cc2)c2ccccc12`, in the assay with MDA-MB-231, the IC50 amounted to 3020 nM. As for `Cc1[nH]nc(C(F)(F)F)c1Cc1sc2c(c1C(=O)N1C[C@](C)(O)CO1)c(=O)n(C)c(=O)n2C(C)C` [AZD3965], in assay [8], the Ki came to 2 nM. For the molecule `CC(C)(OCc1nn(Cc2ccccc2)c2ccccc12)C(=O)O` [BINDARIT], the Ki in [9] was 30200 nM. On to `N#C/C(=C\c1ccc(O)cc1)C(=O)O` [alpha-CYANO-4-HYDROXYCINNAMIC ACID], for which the figures for the 50% inhibitory concentration (IC50) in assay [10] and in assay [11] were 100000 nM and over 150000 nM, respectively.
